Like-named read-outs stand apart in the source and are kept apart here.
Legend:
[1] = Liver microsomes stability, human; type: in vitro ADME
Method: A 100 μM test compound solution and PC solution (verapamil) was prepared by adding 2 μL of 10 mM stock solution in DMSO to 198 μL of 50% acetonitrile/50% water.
Two separate experiments were performed as follows:
a) With Cofactors (NADPH): 25 μL of 10 mM NADPH was added to the incubations. The final concentrations of microsomes and NADPH were 0.5 mg/mL and 1 mM, respectively.
b) Without Cofactors (NADPH): 25 μL of 100 mM Phosphate buffer was added to the incubations. The final concentration of microsomes was 0.5 mg/mL. The mixture was pre-warmed at 37° C. for 10 minutes.
The reaction was started with the addition of 2.5 μL of 100 µM control compound or test compound solutions. Verapamil was used as positive control in this study. The final concentration of test compound or control compound was 1 μM. The incubation solution was incubated in a water bath at 37° C.
Aliquots of 30 μL were taken from the reaction solution at 0.5, 15, 30, 45 and 60 minutes. The reaction was stopped by the addition of 5 volumes of cold acetonitrile with IS (100 nM alprazolam, 200 nM caffeine and 100 nM tolbutamide).
Samples were then centrifuged at 3,220 g for 40 minutes. An aliquot of 100 μL of the supernatant was mixed with 100 μL of ultra-pure H2O and then used for LC-MS/MS analysis.
(§1) Single dose PK parameters were also determined for Compound 143, a deuterated derivative of Compound 1, according to the methods described herein. […] Metabolic stability was assessed by measuring the half-life of the test compounds in human and mouse liver microsomes.

[2] = Single dose plasma pharmacokinetics after IV and PO administration; type: in vivo, female BALB/c mice; details: for AUC(0-t) / Cmax: female, BALB/c; for AUC(0-t) / Cmax / AUC(0-inf) / C0 / clearance / half-life / Vd / Tmax: mouse, plasma; for AUC(0-t) / Cmax / F / AUC(0-inf) / C0 / clearance / half-life / Vd / Tmax: female BALB/c mice; for F: PO 20 mg/kg vs IV 1 mg/kg; for Vd: read-out: Vss
Method: Single dose PK parameters in plasma were determined following intravenous administration of compound 1 and comparative compound E7820 at 1 mg/kg by using the formulation of 10% DMSO/30% PEG400/60% Saline. The plasma samples were collected at the following time points: 0.083, 0.25, 0.5, 1, 2, 4, 8 and 24 hrs post-dose. The concentrations in plasma were determined.
Single dose PK parameters in plasma were determined following oral gavage of Compound 1 and comparative compound E7820 at 20 mg/kg by using the formulation of 0.5% MC (400 cps) and 0.1% Tween80 in water. The plasma samples were collected at the following time points: 0.25, 0.5, 1, 2, 4, 8 and 24 hrs post dose.
as §1

[3] = target: T1, MDR1 (Homo sapiens, UniProt P08183); assay: MDCK-MDR1 permeability / efflux assay; type: in vitro ADME, canine; details: dog; for Papp A→B at 2 h, 1 µM: MDCK-MDR1, pH 7.4, MDCK cells, apical to basolateral
T1 construct: expressed in transfected cells; host or cells: MDCK-MDR1 cells (MDCK host)
T1 sequence (P08183 whole entry): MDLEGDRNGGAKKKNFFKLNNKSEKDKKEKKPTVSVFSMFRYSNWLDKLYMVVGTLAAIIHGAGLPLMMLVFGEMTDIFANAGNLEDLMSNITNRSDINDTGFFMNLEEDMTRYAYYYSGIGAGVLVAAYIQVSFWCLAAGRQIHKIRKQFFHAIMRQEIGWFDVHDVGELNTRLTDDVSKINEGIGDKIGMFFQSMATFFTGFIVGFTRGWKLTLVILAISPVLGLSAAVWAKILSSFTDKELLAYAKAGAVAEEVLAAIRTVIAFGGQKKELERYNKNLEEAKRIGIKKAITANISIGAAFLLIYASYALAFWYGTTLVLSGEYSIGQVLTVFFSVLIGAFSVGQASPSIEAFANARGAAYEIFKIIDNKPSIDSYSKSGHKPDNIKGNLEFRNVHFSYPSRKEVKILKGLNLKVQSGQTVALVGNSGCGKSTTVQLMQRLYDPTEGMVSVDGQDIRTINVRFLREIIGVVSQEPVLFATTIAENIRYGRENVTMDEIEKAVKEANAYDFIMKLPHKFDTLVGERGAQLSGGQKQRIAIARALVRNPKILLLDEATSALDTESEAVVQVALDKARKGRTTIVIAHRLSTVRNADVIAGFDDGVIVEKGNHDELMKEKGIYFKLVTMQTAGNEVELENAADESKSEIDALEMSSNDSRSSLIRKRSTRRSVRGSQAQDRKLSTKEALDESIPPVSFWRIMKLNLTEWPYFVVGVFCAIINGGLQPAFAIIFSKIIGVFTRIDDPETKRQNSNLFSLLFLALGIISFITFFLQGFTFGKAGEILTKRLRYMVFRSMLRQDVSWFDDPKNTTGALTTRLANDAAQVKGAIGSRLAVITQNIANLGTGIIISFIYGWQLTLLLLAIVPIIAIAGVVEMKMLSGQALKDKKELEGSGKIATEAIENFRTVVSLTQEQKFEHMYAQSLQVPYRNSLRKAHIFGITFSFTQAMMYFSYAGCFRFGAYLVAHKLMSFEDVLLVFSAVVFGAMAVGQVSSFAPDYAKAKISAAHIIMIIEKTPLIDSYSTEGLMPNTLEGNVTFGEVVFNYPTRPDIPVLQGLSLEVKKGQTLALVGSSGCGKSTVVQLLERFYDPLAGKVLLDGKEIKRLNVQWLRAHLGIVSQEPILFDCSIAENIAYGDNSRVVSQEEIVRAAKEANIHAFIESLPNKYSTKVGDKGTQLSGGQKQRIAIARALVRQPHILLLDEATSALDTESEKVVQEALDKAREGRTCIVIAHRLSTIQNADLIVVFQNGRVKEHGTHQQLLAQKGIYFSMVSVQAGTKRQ
Method: To prepare transport buffer (HBSS with 10 mM HEPES, pH 7.4), 2.383 g of HEPES and 0.35 g sodium hydrogen carbonate was accurately weighed and added into 900 mL of pure water, then sonicated to dissolve the content. Into the solution was transferred 100 mL of 10×HBSS, and the solution was placed on a stirrer. The pH of the solution was slowly adjusted with sodium hydroxide to 7.4, followed with filtering.
MDCK-MDR1 plate(s) were removed from the incubator. The monolayer was washed the monolayer twice with pre-warmed HBSS (10 mM HEPES, pH 7.4). Then the plate(s) were incubated at 37° C. for 30 minutes.
Propranolol was used as the high permeability marker. Digoxin was used as the substrate of […] (MDR1). Stock solutions of test compound(s) and digoxin in DMSO at 0.2 mM were prepared and diluted with HBSS (10 mM HEPES, pH 7.4) to get 1 μM working solutions. Stock solutions of propranolol in DMSO at 1 mM was prepared and diluted with HBSS (10 mM HEPES, pH 7.4) to get 5 μM working solutions.
To determine the rate of drug transport in the apical to basolateral direction, 125 μL of the working solution was added to the Transwell insert (apical compartment), and a 50 μL sample was immediately transferred from the apical compartment to 200 μL quenching solvents (acetonitrile with 100 nM alprazolam, 200 nM caffeine, 200 nM labetalol and 100 nM tolbutamide) in a new 96-well plate as the initial donor sample (A-B). The plate was shaken at 1000 rpm for 10 minutes. The wells in the receiver plate (basolateral compartment) were filled with 235 μL of transport buffer. All incubations were performed in duplicate.
To determine the rate of drug transport in the basolateral to apical direction, 285 μL of the 1 μM working solution was added to the receiver plate wells (basolateral compartment), and a 50 μL sample was immediately transferred from the basolateral compartment to 200 μL quenching solvents (acetonitrile with 100 nM alprazolam, 200 nM caffeine, 200 nM labetalol and 100 nM tolbutamide) in a new 96-well plate as the initial donor sample (B-A). Shake the plate at 1000 rpm 10 minutes. The Transwell insert (apical compartment) was filled with 75 μL of transport buffer. The apical to basolateral direction and the basolateral to apical direction were done at the same time.
The Transwell insert plate was inserted into the basolateral plate, transferred into the incubator and incubated at 37° C. for 2 hours.
At the end of the incubation, 50 μL samples from donor sides (apical compartment for Ap→Bl flux, and basolateral compartment for Bl→Ap flux) and receiver sides (basolateral compartment for Ap→Bl flux, and apical compartment for Bl→Ap flux) were transferred to wells of a new 96-well plate, followed by the addition of 4 volume of quenching solvents (acetonitrile with 100 nM alprazolam, 200 nM caffeine, 200 nM labetalol and 100 nM tolbutamide). Samples were Vortexed for 10 minutes and then centrifuged at 3,220 g for 40 minutes. An aliquot of 100 μL of the supernatant was mixed with an appropriate volume of ultra-pure water before LC-MS/MS analysis.
To determine the Lucifer yellow leakage after 2-hour transport period, Lucifer yellow working solutions were prepared by diluting the stock solution with HBSS (10 mM HEPES, pH 7.4) to reach the final concentration of 100 μM. To the apical compartment, 100 μL of the Lucifer yellow solution were added. The plate(s) were incubated at 37° C. for 30 minutes and 80 μL was directly removed from the apical and basolateral wells and transferred to new 96 wells plates. Lucifer yellow fluorescence (to monitor monolayer integrity) was measured in a fluorescence plate reader at 485 nm excitation and 530 nm emission.

[4] = Table 6, read-out: Metabolic Stability Half-life, Human
[5] = po, 20 mg/kg, AUC(0-8 hr), oral administration, Table 7
[6] = po, 20 mg/kg, oral administration, Table 7
[7] = MDCK-MDR1, pH 7.4, MDCK cells, Table 6, read-out: MDCK Permeability Efflux Ratio
[8] = 1 μM, Table 3, read-out: Metabolic Stability Half-life, human
[9] = iv, 1 mg/kg, IV 1 mg/kg, read-out: AUC(0-t)
[10] = po, 20 mg/kg, PO 20 mg/kg, read-out: AUC(0-t)
[11] = MDCK-MDR1, pH 7.4, MDCK-MDR1, 1 μM, 2 hours, Table 3, read-out: MDCK-MDR1 Efflux ratio

Row | Compound | half-life at 1 µM [1, 4] [h] | AUC(0-t) [2, 5] [ng·h/mL] | Cmax [2, 6] [ng/mL] | efflux ratio at 2 h, 1 µM [3, 7] | Papp A→B at 2 h, 1 µM ([3]; Table 6) [×10⁻⁶ cm/s] | half-life at 1 µM [1, 8] [h] | F [2] [%] | AUC(0-t) [2, 9] [ng·h/mL] | Cmax ([2]; po, 20 mg/kg, PO 20 mg/kg) [ng/mL] | AUC(0-t) [2, 10] [ng·h/mL] | AUC(0-inf) ([2]; IV 1 mg/kg) [ng·h/mL] | C0 ([2]; IV 1 mg/kg) [ng/mL] | clearance ([2]; IV 1 mg/kg) [mL/min/kg] | half-life ([2]; IV 1 mg/kg) [h] | Vd ([2]; IV 1 mg/kg) [L/kg] | Tmax ([2]; PO 20 mg/kg) [h] | efflux ratio at 2 h, 1 µM [3, 11] | other results
1 | [2H]C([2H])([2H])c1ncc(S(=O)(=O)Nc2ccc(C)c3c(C#N)c[nH]c23)s1 [Compound 143, N-(3-cyano-4-methyl-1H-indol-7-yl)-2-(methyl-d3)thiazole-5-sulfonamide] | 1.55 | 107000 | 19300 | 12 | 2.9 | – | – | – | – | – | – | – | – | – | – | – | – | plasma AUC compared to Compound 1 ([2]; oral administration, compared to Compound 1, in words): increase
2 | Cc1ncc(S(=O)(=O)Nc2ccc(C)c3c(C#N)c[nH]c23)s1 [Compound 1, N-(3-cyano-4-methyl-1H-indol-7-yl)-2-methyl-thiazole-5-sulfonamide] | 1.1 | 62300 | 9850 | 26 | 1.9 | 1.1 | 407 | 1860 | 25900 | 151000 | 1860 | 6060 | 9.4 | 0.67 | 0.201 | 2.33 | 25.5 | AUC(0-inf) ([2]; PO 20 mg/kg): 190000 ng·h/mL; half-life ([2]; PO 20 mg/kg): 2.52 h; increase in plasma AUC compared to E7820 ([2]; oral administration, compared to control compound E7820): greater than 2 fold
3 | Cc1ccc(NS(=O)(=O)c2cccc(C#N)c2)c2[nH]cc(C#N)c12 [Compound E7820, E7820, reference compound] | 0.85 | – | – | 30 | 1.1 | 0.845 | 202 | 1640 | 11500 | 66200 | 1650 | 3150 | 10.2 | 0.541 | 0.393 | 2.67 | 29.9 | –
